Patent US10689399B2, “Substituted 3,4,5,6,8,10,14,14a-octahydro-2h-2,6-methanopyrido[1′,2′:4,5]pyrazino[2,1-b][1,3]oxazocines and methods for treating viral infections” (Gilead Sciences, Inc., priority 2012, dated 2020)
Where two headings read alike, the source gives them in different places.

System: HIV-IIIb
Assay: Antiviral assay in MT4 cells
Type: cell-based
Settings: Human immunodeficiency virus 1, IIIB, MT4, 120 h
Experimental: For the antiviral assay utilizing MT4 cells, 0.4 μL of 189X test concentration of 3-fold serially diluted compound in DMSO was added to 40 μL of cell growth medium (RPMI 1640, 10% FBS, 1% penicilline/Streptomycine, 1% L-Glutamine, 1% HEPES) in each well of 384-well assay plates (10 concentrations) in quidruplicate.
1 mL aliquots of 2×10^6 MT4 cells are pre-infected for 1 and 3 hours respectively at 37° C. with 25 μL (MT4) or of either cell growth medium (mock-infected) or a fresh 1:250 dilution of an HIV-IIIb concentrated ABI stock (0.004 m.o.i. for MT4 cells). Infected and uninfected cells are diluted in cell growth medium and 35 μL of 2000 (for MT4) cells is added to each well of the assay plates.
Assay plates were then incubated in a 37° C. incubator. After 5 days of incubation, 25 μL of 2× concentrated CellTiter-Glo™ Reagent (catalog # G7573, Promega Biosciences, Inc., Madison, Wis.) was added to each well of the assay plate. Cell lysis was carried out by incubating at room temperature for 2-3 minutes, and then chemiluminescence was read using the Envision reader (PerkinElmer).

[1] = MT4 cells infected with HIV-IIIb, 5 days, CellTiter-Glo, read-out: EC50 nM in MT-4
[2] = read-out: EC50 nM in MT-4, MT4 cells infected with HIV-IIIb, 5 days, CellTiter-Glo

Structure (SMILES)	EC50 [1] [nM]	EC50 [2] [nM]
O=C(NCc1ccc(F)c(F)c1F)c1cn2c(c(O)c1=O)C(=O)N1[C@@H]3CC[C@@H](C3)O[C@H]1C2 [Compound 44, (13aS)-8-hydroxy-7,9-dioxo-N-(2,3,4-trifluorobenzyl)-2,3,4,5,7,9,13,13a-octahydro-2,5-methanopyrido[1′,2′:4,5]pyrazino[2,1-b][1,3]oxazepine-10-carboxamide]	2.3	–
O=C(NCc1c(F)cc(F)cc1F)c1cn2c(c(O)c1=O)C(=O)N1[C@@H]3CC[C@@H](C3)O[C@H]1C2 [Compound 45, (13aS)-8-hydroxy-7,9-dioxo-N-(2,4,6-trifluorobenzyl)-2,3,4,5,7,9,13,13a-octahydro-2,5-methanopyrido[1′,2′:4,5]pyrazino[2,1-b][1,3]oxazepine-10-carboxamide]	2.4	–
O=C(NCc1c(F)cccc1F)c1cn2c(c(O)c1=O)C(=O)N1[C@@H]3CC[C@@H](C3)O[C@H]1C2 [Compound 46, (13aS)—N-(2,6-difluorobenzyl)-8-hydroxy-7,9-dioxo-2,3,4,5,7,9,13,13a-octahydro-2,5-methanopyrido[1′,2′:4,5]pyrazino[2,1-b][1,3]oxazepine-10-carboxamide]	2.6	–
O=C(NCc1ccc(F)cc1F)c1cn2c(c(O)c1=O)C(=O)N1[C@H]3CC[C@H](C3)[C@@H]1C2 [Compound 47, (1R,4S,12aR)—N-(2,4-difluorobenzyl)-7-hydroxy-6,8-dioxo-1,2,3,4,6,8,12,12a-octahydro-1,4-methanodipyrido[1,2-a:1′,2′-d]pyrazine-9-carboxamide]	–	1.9
O=C(NCc1ncccc1C(F)(F)F)c1cn2c(c(O)c1=O)C(=O)N1[C@@H]3CC[C@@H](C3)O[C@H]1C2 [Compound 49, (2 S,5R,13aS)-8-hydroxy-7,9-dioxo-N-((3-(trifluoromethyl)pyridin-2-yl)methyl)-2,3,4,5,7,9,13,13a-octahydro-2,5-methanopyrido[1%2′: 4,5]pyrazino[2,1-b][1,3]oxazepine-10-carboxamide]	33.3	–
O=C(NCc1ccc(F)cc1OC1CC1)c1cn2c(c(O)c1=O)C(=O)N1[C@@H]3CC[C@@H](C3)O[C@H]1C2 [Compound 52, (2S,5R,13aS)—N-(2-cyclopropoxy-4-fluorobenzyl)-8-hydroxy-7,9-dioxo-2,3,4,5,7,9,13,13a-octahydro-2,5-methanopyrido[1%2′: 4,5]pyrazino[2,1-b][1,3]oxazepine-10-carboxamide]	15	–
O=C(NCc1ccc(F)cc1OC1CC1)c1cn2c(c(O)c1=O)C(=O)N1[C@H]3CC[C@H](C3)O[C@@H]1C2 [Compound 53, (2R,5S,13aR)—N-(2-cyclopropoxy-4-fluorobenzyl)-8-hydroxy-7,9-dioxo-2,3,4,5,7,9,13,13a-octahydro-2,5-methanopyrido[1%2′: 4,5]pyrazino[2,1-b][1,3]oxazepine-10-carboxamide]	14.3	–
O=C(N[C@@H](c1ccc(F)cc1F)C(F)(F)F)c1cn2c(c(O)c1=O)C(=O)N1C(C2)O[C@@H]2CC[C@H]1C2 (stereo partly drawn) [Compound 54, (2R,5S)—N—((S)-1-(2,4-difluorophenyl)-2,2,2-trifluoroethyl)-8-hydroxy-7,9-dioxo-2,3,4,5,7,9,13,13a-octahydro-2,5-methanopyrido[1′,2′:4,5]pyrazino[2,1-b][1,3]oxazepine-10-carboxamide]	15.6	–
O=C(NCc1c(F)cc(F)cc1F)c1cn2c(c(O)c1=O)C(=O)N1[C@H]3CC[C@H](C3)[C@H]1C2 [Compound 55, (1R,4S,12aS)-7-hydroxy-6,8-dioxo-N-(2,4,6-trifluorobenzyl)-1,2,3,4,6,8,12,12a-octahydro-1,4-methanodipyrido[1,2-a:1′,2′-d]pyrazine-9-carboxamide]	1.5	–
O=C(NCc1c(F)cc(F)cc1F)c1cn2c(c(O)c1=O)C(=O)N1[C@@H]3C[C@H]([C@@H]1C2)C(F)(F)C3 [Compound 57, (1R,4R,12aR)-2,2-difluoro-7-hydroxy-6,8-dioxo-N-(2,4,6-trifluorobenzyl)-1,2,3,4,6,8,12,12a-octahydro-1,4-methanodipyrido[1,2-a:1′,2′-d]pyrazine-9-carboxamide]	2.3	–
O=C(NCc1ccc(F)c(Cl)c1F)c1cn2c(c(O)c1=O)C(=O)N1[C@@H]3C[C@H]([C@@H]1C2)C(F)(F)C3 [Compound 58, (1R,4R,12aR)—N-(3-chloro-2,4-difluorobenzyl)-2,2-difluoro-7-hydroxy-6,8-dioxo-1,2,3,4,6,8,12,12a-octahydro-1,4-methanodipyrido[1,2-a:1′,2′-d]pyrazine-9-carboxamide]	1.5	–
O=C(NCc1c(F)cc(F)cc1F)c1cn2c(c(O)c1=O)C(=O)N1[C@@H]3C[C@@H]([C@H](F)C3)[C@@H]1C2 [Compound 59, (1R,2R,4R,12aR)-2-fluoro-7-hydroxy-6,8-dioxo-N-(2,4,6-trifluorobenzyl)-1,2,3,4,6,8,12,12a-octahydro-1,4-methanodipyrido[1,2-a:1′,2′-d]pyrazine-9-carboxamide]	3.1	–
O=C(NCc1cccc(Cl)c1Cl)c1cn2c(c(O)c1=O)C(=O)N1[C@H]3CC[C@H](C3)[C@@H]1C2 [Compound 60, (1R,4S,12aR)—N-(2,3-dichlorobenzyl)-7-hydroxy-6,8-dioxo-1,2,3,4,6,8,12,12a-octahydro-1,4-methanodipyrido[1,2-a:1′,2′-d]pyrazine-9-carboxamide]	2.1	–
O=C(NCc1ccc(F)c(Cl)c1F)c1cn2c(c(O)c1=O)C(=O)N1[C@H]3CC[C@H](C3)[C@H]1C2 [Compound 61, (1R,4S,12aS)—N-(3-chloro-2,4-difluorobenzyl)-7-hydroxy-6,8-dioxo-1,2,3,4,6,8,12,12a-octahydro-1,4-methanodipyrido[1,2-a:1′,2′-d]pyrazine-9-carboxamide]	1.8	–
O=C(NCc1ccc(F)cc1C(F)(F)F)c1cn2c(c(O)c1=O)C(=O)N1[C@H]3CC[C@H](C3)O[C@@H]1C2 [Compound 62, (2R,5S,13aR)—N-(4-fluoro-2-(trifluoromethyl)benzyl)-8-hydroxy-7,9-dioxo-2,3,4,5,7,9,13,13a-octahydro-2,5-methanopyrido[1′,2′:4,5]pyrazino[2,1-b][1,3]oxazepine-10-carboxamide]	9.2	–
O=C(NCc1ccc(F)cc1Cl)c1cn2c(c(O)c1=O)C(=O)N1[C@H]3CC[C@H](C3)O[C@@H]1C2 [Compound 63, (2R,5S,13aR)—N-(2-chloro-4-fluorobenzyl)-8-hydroxy-7,9-dioxo-2,3,4,5,7,9,13,13a-octahydro-2,5-methanopyrido[1′,2′:4,5]pyrazino[2,1-b][1,3]oxazepine-10-carboxamide]	–	2.5
O=C(NCc1cc(F)c(F)cc1F)c1cn2c(c(O)c1=O)C(=O)N1[C@H]3CC[C@H](C3)O[C@@H]1C2 [Compound 64, (2R,5S,13aR)-8-hydroxy-7,9-dioxo-N-(2,4,5-trifluorobenzyl)-2,3,4,5,7,9,13,13a-octahydro-2,5-methanopyrido[1′,2′:4,5]pyrazino[2,1-b][1,3]oxazepine-10-carboxamide]	3.5	–
O=C(NCc1cc(Cl)c(F)cc1F)c1cn2c(c(O)c1=O)C(=O)N1[C@H]3CC[C@H](C3)O[C@@H]1C2 [Compound 65, (2R,5 S,13aR)—N-(5-chloro-2,4-difluorobenzyl)-8-hydroxy-7,9-dioxo-2,3,4,5,7,9,13,13a-octahydro-2,5-methanopyrido[1′,2′: 4,5]pyrazino[2,1-b][1,3]oxazepine-10-carboxamide]	2.4	–
O=C(NCc1ccc(F)c(F)c1)c1cn2c(c(O)c1=O)C(=O)N1[C@H]3CC[C@H](C3)[C@@H]1C2 [Compound 66, (1R,4S,12aR)—N-(3,4-difluorobenzyl)-7-hydroxy-6,8-dioxo-1,2,3,4,6,8,12,12a-octahydro-1,4-methanodipyrido[1,2-a:1′,2′-d]pyrazine-9-carboxamide]	9.4	–
O=C(NCc1ccc(F)cc1C(F)(F)F)c1cn2c(c(O)c1=O)C(=O)N1[C@H]3CC[C@H](C3)[C@@H]1C2 [Compound 67, (1R,4S,12aR)—N-(4-fluoro-2-(trifluoromethyl)benzyl)-7-hydroxy-6,8-dioxo-1,2,3,4,6,8,12,12a-octahydro-1,4-methanodipyrido[1,2-a:1′,2′-d]pyrazine-9-carboxamide]	10.7	–
O=C(NCc1ccc(F)cc1Cl)c1cn2c(c(O)c1=O)C(=O)N1[C@H]3CC[C@H](C3)[C@@H]1C2 [Compound 68, (1R,4S,12aR)—N-(2-chloro-4-fluorobenzyl)-7-hydroxy-6,8-dioxo-1,2,3,4,6,8,12,12a-octahydro-1,4-methanodipyrido[1,2-a:1′,2′-d]pyrazine-9-carboxamide]	2.7	–
O=C(NCc1ccc(F)c(Cl)c1F)c1cn2c(c(O)c1=O)C(=O)N1[C@H]3CC[C@H](C3)[C@@H]1C2 [Compound 69, (1R,4S,12aR)—N-(3-chloro-2,4-difluorobenzyl)-7-hydroxy-6,8-dioxo-1,2,3,4,6,8,12,12a-octahydro-1,4-methanodipyrido[1,2-a:1′,2′-d]pyrazine-9-carboxamide]	1.9	–
Cc1cccc(CNC(=O)c2cn3c(c(O)c2=O)C(=O)N2[C@H]4CC[C@H](C4)[C@@H]2C3)c1F [Compound 70, (1R,4S,12aR)—N-(2-fluoro-3-methylbenzyl)-7-hydroxy-6,8-dioxo-1,2,3,4,6,8,12,12a-octahydro-1,4-methanodipyrido[1,2-a:1′,2′-d]pyrazine-9-carboxamide]	5.1	–
